# “Also recorded” adds a separate entry of the source.
# Assays:
# [1] = Uptake by the nervous tissues after peridural injection; assay type: in vivo; settings: rabbit, mean ± standard deviation, n=3
# Excerpt: Mean±standarddeviation; number in brackets=number of animals.
# [2] = Biodistribution in the liver and heart 4 hours after peridural injection; assay type: in vivo; settings: rabbit, mean ± standard deviation, n=3
# Description: 0.2 ml of the centrifugation pellet are administered peridurally to rabbits, under the same conditions as in Example 1.
# By way of control, 4.5 mg of bupivacaine for clinical use (Marcaine®-Astra-[…] strength hydrochloride solution) is administered under the same conditions with or without adrenaline, and with the addition of 0.01 mCi of [^3 H]bupivacaine, this combination being present in a total 0.2 ml of solution.
# Likewise, by way of control, SUVs without bupivacaine are administered in the course of this study, under the conditions stated in Example 1.
# The animals are sacrificed 120 and 240 minutes after the injection, and the organs and tissues are sampled under the same conditions as those of Example 1.
# Biodistribution of [^3 H]Ch SUV, of MLVS which have integrated [^3 H]bupivacaine, and of bupivacaine, in the liver and heart 4 hours after the peridural injection (ID×10^2).
# motor fibers = settings: bupivacaine used today in anesthesia; general knowledge; cited from earlier work
# [3] = Blood kinetics in whole blood after peridural injection in rabbits; assay type: in vivo; settings: rabbit
# Description: Biodistribution and pharmacokinetics of the liposomes which have incorporated bupivacaine, administered peridurally
# The formation of MLVs takes place by adding 3 ml of 0.3M Tris-HCl buffer, pH 8, followed by 5 centrifugations at 5000 g in the same buffer.
# The results are expressed as a percentage of the injected dose (ID) in the whole blood.
# [4] = Urinary excretion of radioactivity 2 hours after peridural injection; assay type: in vivo; settings: rabbit, mean ± standard deviation, n=3
# Description: Radioactivity excreted in the urine (ID×10^2) 2 hours after the peridural injection of [^3 H]Ch-labeled SUV, of MLV which has integrated ^3 H-labeled bupivacaine, or of non-encapsulated bupivacaine. Mean±standard deviation; the number in brackets=the number of animals.
# tail of rats = assay: Analgesic effect: threshold of the pain induced by an electric shock to the tail of rats; assay type: in vivo; settings: rat tail, point S2
# Description: The analgesic effect is measured by the increase in the threshold of the pain induced by an electric shock to the tail of rats.
# Lipid film: Egg Pc/Chol, 4:3-60 mg of lipids (equivalent to 43.26 mg of egg Pc and 16.74 mg of Chol)+5 mg of bupivacaine base in lyophilized, liposoluble form. Formation of the liposomes: Suspension of the lipid film in the form of multilamellar liposomes in a 0.3M Tris-HCl buffer, pH 8 (3 ml). The liposomal suspension is centrifuged, and the liposomal pellet is injected as it is (0.5 ml) under the skin, in the rat's tail at a point S2.
# The pain threshold is measured by electrical excitation at S2, and then at S1 (S1, situated 5 cm downstream from the injection point, serves for taking a reference with respect to the injection point, and also for measuring the possible diffusion of the product injected at S2).
smiles,measurement,setting,value
"CCCCN1CCCCC1C(=O)Nc1c(C)cccc1C (stereo not drawn) [Bupivacaine, bupivacaine]",Uptake by brachial plexus,[1]; 2 hrs,0.295 ± 0.048 ID in 1 g×10^3
same,Uptake by cauda equina,[1]; 2 hrs,0.485 ± 0.057 ID in 1 g×10^3
same,Uptake by lumbar marrow,[1]; 2 hrs,0.411 ± 0.094 ID in 1 g×10^3
same,Uptake by sciatic nerve,[1]; 2 hrs,0.281 ± 0.026 ID in 1 g×10^3
same,Uptake by brachial plexus,[1]; 4 hrs,1.136 ± 0.008 ID in 1 g×10^3
same,Uptake by cauda equina,[1]; 4 hrs,0.132 ± 0.035 ID in 1 g×10^3
same,Uptake by lumbar marrow,[1]; 4 hrs,0.169 ± 0.046 ID in 1 g×10^3
same,Uptake by nerve roots,[1]; 4 hrs,0.153 ± 0.023 ID in 1 g×10^3
same,Uptake by sciatic nerve,[1]; 4 hrs,0.132 ± 0.028 ID in 1 g×10^3
same,Biodistribution in the heart,[2],2.142 ± 0.301 ID×10^2
same,Biodistribution in the liver,[2],20.477 ± 1.458 ID×10^2
same,effect on sensory and motor fibers,motor fibers,"blocks the sensory fibers and not the motor fibers; also recorded: affects motor fibers to only a small extent, if at all"
same,highest blood level (blood peak),[3],1.4 % of the injected dose
same,Radioactivity excreted in the urine,[4],11.633 ± 0.518 ID×10^2
same,time of rise of the pain threshold after injection,tail of rats,less than one hour
